In ChEMBL document CHEMBL1649242, “Molecular epidemiology of CTX-M-producing Escherichia coli isolates at a tertiary medical center in western Pennsylvania” (Antimicrob Agents Chemother, 2009):
Calls of active or inactive are those of the source. The calls are words filed in the database; no cut-off is given here.

Legend:
Assay type in all cases: functional, organism-based
Escherichia coli [1] = experiment: Antimicrobial activity against SHV-5 ESBL producing Escherichia coli clinical isolate by CLSI disk diffusion assay
Escherichia coli [2] = experiment: Antimicrobial activity against SHV-7 ESBL producing Escherichia coli clinical isolate by CLSI disk diffusion assay
Escherichia coli [3] = experiment: Antimicrobial activity against CTX-M ESBL producing Escherichia coli clinical isolate by CLSI disk diffusion assay
Escherichia coli [4] = experiment: Antimicrobial activity against CTX-M-15 ESBL producing Escherichia coli clinical isolate by CLSI disk diffusion assay
Escherichia coli [5] = experiment: Antimicrobial activity against TEM-10 ESBL producing Escherichia coli clinical isolate by CLSI disk diffusion assay

Compound | Activity (Escherichia coli [1]) | Activity (Escherichia coli [2]) | Activity (Escherichia coli [3]) | Activity (Escherichia coli [4]) | Activity (Escherichia coli [5])
CC(C)(O/N=C(\C(=O)N[C@@H]1C(=O)N2C(C(=O)[O-])=C(C[n+]3ccccc3)CS[C@H]12)c1csc(N)n1)C(=O)O | inactive | inactive | inactive | inactive | inactive
CO/N=C(\C(=O)N[C@@H]1C(=O)N2C(C(=O)O)=C(COC(C)=O)CS[C@H]12)c1csc(N)n1 | – | – | – | – | Active
